Test results: US20030139431A1 (priority 2001, published 2003)
Where a name gives a salt, the structure may show the parent alone.

What was measured:
[1] = biological target: T1, rNPFF1 (Rattus norvegicus, UniProt Q9EP86); assay: Functional assay (agonist potency, intrinsic activity) at cloned rat NPFF1 receptor; format: cell-based; conditions: for rNPFF1 IA (intrinsic activity): percent of maximum response elicited by neuropeptide FF, rat NPFF1; for EC50: recombinant rat NPFF1
T1 construct: expressed in transfected cells
T1 sequence (Q9EP86 whole entry): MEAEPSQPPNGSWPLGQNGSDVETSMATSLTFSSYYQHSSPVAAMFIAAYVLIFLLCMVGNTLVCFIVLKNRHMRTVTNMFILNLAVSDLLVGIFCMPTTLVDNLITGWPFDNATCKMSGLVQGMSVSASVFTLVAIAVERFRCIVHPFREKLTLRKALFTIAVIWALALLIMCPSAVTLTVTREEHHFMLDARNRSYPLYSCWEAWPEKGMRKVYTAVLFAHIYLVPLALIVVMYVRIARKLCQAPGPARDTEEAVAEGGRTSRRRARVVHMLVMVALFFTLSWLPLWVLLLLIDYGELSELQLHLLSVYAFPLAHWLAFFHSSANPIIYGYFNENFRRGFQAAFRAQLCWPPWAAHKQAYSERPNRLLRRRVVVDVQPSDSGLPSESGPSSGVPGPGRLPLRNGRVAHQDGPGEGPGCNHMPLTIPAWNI
Procedure: (§1) Intrinsic activity of a compound is measured as the percent of maximum response.

[2] = biological target: T1, rNPFF1; assay: Binding affinity at cloned recombinant rat NPFF1 receptor
[3] = biological target: T2, rNPFF2 (Rattus norvegicus, UniProt Q9EQD2); assay: Functional assay (agonist potency, intrinsic activity) at cloned rat NPFF2 receptor; format: cell-based; conditions: for rNPFF2 IA (intrinsic activity): percent of maximum response elicited by neuropeptide FF, rat NPFF2; for EC50: recombinant rat NPFF2
T2 construct: expressed in transfected cells
T2 sequence (Q9EQD2 whole entry): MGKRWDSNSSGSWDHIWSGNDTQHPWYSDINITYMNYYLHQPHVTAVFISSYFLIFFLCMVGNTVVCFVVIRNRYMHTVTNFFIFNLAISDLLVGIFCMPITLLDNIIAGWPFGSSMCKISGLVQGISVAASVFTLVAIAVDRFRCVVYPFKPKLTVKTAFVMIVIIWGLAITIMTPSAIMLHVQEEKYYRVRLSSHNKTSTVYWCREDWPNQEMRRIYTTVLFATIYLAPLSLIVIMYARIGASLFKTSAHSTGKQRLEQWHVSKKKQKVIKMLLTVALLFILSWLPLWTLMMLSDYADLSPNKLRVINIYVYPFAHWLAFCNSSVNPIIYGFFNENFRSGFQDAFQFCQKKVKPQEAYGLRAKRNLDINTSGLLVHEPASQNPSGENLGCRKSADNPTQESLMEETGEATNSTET
Procedure: as §1

[4] = biological target: T2, rNPFF2; assay: Binding affinity at cloned recombinant rat NPFF2 receptor
[5] = test system: distention induced contractions of the rat bladder; assay: Distension-induced rhythmic contraction (DIRC) model, micturition reflex in anesthetized rats; format: in vivo; conditions: i.v.; for duration of inhibition of bladder activity (figure legend): dose not printed in legend
Procedure: The effects of compounds on the micturition reflex were assessed in the “distension-induced rhythmic contraction” (DIRC) model (also called “volume-induced rhythmic contraction” model) in rats, as described in previous publications (36, 38, 40). This model is widely considered to be predictive for the actions of drugs to treat human urge incontinence (also referred to as detrusor instability or unstable bladder). Examples of drugs that are active in this model which also are used therapeutically in humans include oxybutynin and baclofen (40); imipramine and nortriptyline (37); and nifedipine and terodiline (38).
Female Sprague Dawley rats weighing approximately 300 g were anesthetized with subcutaneous urethane (1.2 g/kg) The trachea was cannulated with PE240 tubing to provide a clear airway throughout the experiment. A midline abdominal incision was made and the left and right ureters were isolated. The ureters were ligated distally (to prevent escape of fluids from the bladder) and cannulated proximally with PE10 tubing. The incision was closed using 4-0 silk sutures, leaving the PE10 lines routed to the exterior for the elimination of urine. The bladder was canulated via the transurethral route using PE50 tubing inserted 2.5 cm beyond the urethral opening. This cannula was secured to the tail using tape and connected to a pressure transducer. To prevent leakage from the bladder, the cannula was tied tightly to the exterior urethral opening using 4-0 silk.
To initiate the micturition reflex, the bladder was first emptied by applying pressure to the lower abdomen, and then filled with normal saline in 100 μL increments (maximum=2 ml) until spontaneous bladder contractions occurred (typically 20-40 mmHg) at a rate of one contraction every 2 to 3 minutes. Once a regular rhythm was established, vehicle (saline) or test compounds were administered i.v. to examine their effects on bladder activity. The effect of a compound which inhibited the micturition reflex was expressed as its “disappearance time”, defined as the time between successive bladder contractions in the presence of the test compound minus the time between contractions before compound administration.

[6] = biological target: T3, hNPFF1 (Homo sapiens, UniProt Q9GZQ6); assay: Binding affinity at cloned recombinant human NPFF1 receptor
T3 construct: expressed in transfected cells
T3 sequence (Q9GZQ6 whole entry): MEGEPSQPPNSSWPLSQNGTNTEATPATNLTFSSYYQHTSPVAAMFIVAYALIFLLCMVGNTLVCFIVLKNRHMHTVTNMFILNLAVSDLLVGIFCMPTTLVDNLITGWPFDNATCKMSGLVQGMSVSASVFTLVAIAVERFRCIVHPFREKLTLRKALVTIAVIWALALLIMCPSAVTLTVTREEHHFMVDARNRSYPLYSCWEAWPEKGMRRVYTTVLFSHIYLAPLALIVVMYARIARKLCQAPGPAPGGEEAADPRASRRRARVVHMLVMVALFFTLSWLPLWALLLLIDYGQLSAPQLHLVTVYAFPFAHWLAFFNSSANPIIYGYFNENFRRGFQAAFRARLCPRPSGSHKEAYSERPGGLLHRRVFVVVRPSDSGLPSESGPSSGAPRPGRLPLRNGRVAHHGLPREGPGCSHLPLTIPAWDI

[7] = biological target: T4, hNPFF2 (Homo sapiens, UniProt Q9Y5X5); assay: Binding affinity at cloned recombinant human NPFF2 receptor
T4 construct: expressed in transfected cells
T4 sequence (Q9Y5X5 103-522): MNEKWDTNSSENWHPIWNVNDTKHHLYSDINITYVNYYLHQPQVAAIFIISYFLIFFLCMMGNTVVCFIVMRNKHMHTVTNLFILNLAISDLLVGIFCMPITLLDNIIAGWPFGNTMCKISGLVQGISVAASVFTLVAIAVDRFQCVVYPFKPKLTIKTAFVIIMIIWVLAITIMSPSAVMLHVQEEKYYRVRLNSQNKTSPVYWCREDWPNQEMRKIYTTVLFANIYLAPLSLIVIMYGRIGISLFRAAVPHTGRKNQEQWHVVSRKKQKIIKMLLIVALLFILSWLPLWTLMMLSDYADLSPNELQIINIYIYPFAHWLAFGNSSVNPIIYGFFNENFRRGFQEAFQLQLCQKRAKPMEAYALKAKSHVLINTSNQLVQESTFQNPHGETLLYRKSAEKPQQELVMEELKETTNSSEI

[8] = biological target: T3, hNPFF1; assay: Functional assay (agonist potency, intrinsic activity) at cloned human NPFF1 receptor; format: cell-based
Procedure: as §1

[9] = biological target: T4, hNPFF2; assay: Functional assay (agonist potency, intrinsic activity) at cloned human NPFF2 receptor; format: cell-based
Procedure: as §1

Structure (SMILES) | melting point | rNPFF1 IA (intrinsic activity) [1] | EC50 [1] [nM] | Ki [2] [nM] | rNPFF2 IA (intrinsic activity) [3] [% NPFF] | EC50 [3] [nM] | Ki [4] [nM] | Ki [6] [nM] | Ki [7] [nM] | hNPFF1 IA (intrinsic activity) ([8]; percent of maximum response elicited by neuropeptide FF, human NPFF1) | EC50 ([8]; recombinant human NPFF1) [nM] | hNPFF2 IA (intrinsic activity) ([9]; percent of maximum response elicited by neuropeptide FF, human NPFF2) | EC50 ([9]; recombinant human NPFF2) [nM] | disappearance time ([5]; 1 mg/kg) [min] | inhibition of distention induced contractions of the rat bladder ([5]; 1 mg/kg) | duration of inhibition of bladder activity (figure legend) [5] [min] | disappearance time ([5]; 3 mg/kg) [min] | inhibition of distention induced contractions of the rat bladder ([5]; 3 mg/kg)
Cc1cc2nc(NC(=N)N)nc(C)c2cc1O (as salt: salt) [Compound 1017, N-(6-hydroxy-4,7-dimethyl-2-quinazolinyl)guanidine] | 246 to 248 °C (dec.) | – | – | – | – | – | – | – | – | – | – | – | – | – | – | – | – | –
Cc1nc(NC(=N)N)nc2cc(OCc3ccccc3)ccc12 (as salt: salt) [Compound 1006, N-[7-(benzyloxy)-4-methyl-2-quinazolinyl]guanidine] | 215 to 217 °C (dec.) | – | – | – | – | – | – | – | – | – | – | – | – | – | – | – | – | –

Now from value to compound, other results behind:

melting point | rNPFF1 IA (intrinsic activity) [1] | EC50 [1] [nM] | Ki [2] [nM] | rNPFF2 IA (intrinsic activity) [3] [% NPFF] | EC50 [3] [nM] | Ki [4] [nM] | Ki [6] [nM] | Ki [7] [nM] | hNPFF1 IA (intrinsic activity) ([8]; percent of maximum response elicited by neuropeptide FF, human NPFF1) | EC50 ([8]; recombinant human NPFF1) [nM] | hNPFF2 IA (intrinsic activity) ([9]; percent of maximum response elicited by neuropeptide FF, human NPFF2) | EC50 ([9]; recombinant human NPFF2) [nM] | Structure (SMILES) | disappearance time ([5]; 1 mg/kg) [min] | inhibition of distention induced contractions of the rat bladder ([5]; 1 mg/kg) | duration of inhibition of bladder activity (figure legend) [5] [min] | disappearance time ([5]; 3 mg/kg) [min] | inhibition of distention induced contractions of the rat bladder ([5]; 3 mg/kg)
195 to 198 °C (dec.) | 19% NPFF | 3160 | 126 | 81 | 190 | 602 | – | – | – | – | – | – | Cc1nc(NC(=N)N)nc2cc(C(C)(C)C)ccc12 [Compound 1022, N-[7-(tert-butyl)-4-methyl-2-quinazolinyl]guanidine] | – | – | – | – | –
– | Inactive | > 10000 | 25 | 61 | 389 | 282 | 24 | 123 | – | – | – | – | Cc1cc(NC(=N)N)nc2ccc(Cl)cc12 [Compound 4005, N-(6-chloro-4-methyl-2-quinolinyl)guanidine] | 35 | complete inhibition | 35 | – | –
– | Inactive | > 10000 | 7 | 32 | 269 | 185 | 13 | 91 | Inactive | > 10000 | Inactive | > 10000 | Cc1ccc2c(C)cc(NC(=N)N)nc2c1 [Compound 4006, N-(4,7-dimethyl-2-quinolinyl)guanidine] | – | – | 12 | 12 | complete inhibition
295 to 298 °C (dec.) | Inactive | > 10000 | 95 | 74 | 48 | 602 | – | – | – | – | – | – | Cc1nc(NC(=N)N)nc2cc3c(cc12)CCC3 [Compound 1038, N-(4-methyl-7,8-dihydro-6H-cyclopenta[g]quinazolin-2-yl)guanidine] | – | – | – | – | –
